In patent US20070026431A1, “Modulation of MAPK-mediated phosphorylation and/or FBXW8-mediated ubiquitinylation of cyclin D1 in modulation of cellular proliferation” (priority 2005, published 2007):
Like-named read-outs stand apart in the source and are kept apart here. Peptide text beside a SMILES is read from it. * marks the point of attachment. Cbz = O=C(OCc1ccccc1)*

Assays:
MAPK (ERK1/2) = assay: Western blot after 4-HT treatment, ΔB-Raf:ER^TAM NIH 3T3 cells; assay type: cell-based, mouse; conditions: 10 nM 4-HT
Experimental: (§1) Panel B: Western blot analysis. […] Panel C: Western blot analysis after 4-HT treatment. […] A half-life of cyclin D1 protein was calculated.
(§2) In order to investigate whether this was due to accelerated turnover of the cyclin D1 protein, the half-life of endogenous expression of cyclin D1 protein (FIG. 8, Panel E) was assessed.

cyclin D1 protein [1] = assay: Cyclin D1 expression and half-life after 4-HT in ΔB-Raf:ER^TAM NIH 3T3 cells; assay type: cell-based, mouse
Experimental: as §1, §2

[2] = tested on: polyubiquitinated cyclin D1; assay: Polyubiquitination of cyclin D1, IP-immunoblot in HA-ubiquitin transfected S phase HCT 116 cells; assay type: cell-based, human
Experimental: FIG. 3 illustrates that cyclin D1 is destabilized during S phase through the ubiquitin-proteasome pathway in cancers. Panels A and B: Pulse-chase analysis of cyclin D1 protein in NIH 3T3 (Panel A) and HCT 116 (Panel B) cells. When most of the populations were in G1 phase (9 hrs for NIH3T3 and 6 hrs for HCT 116) or in S phase (21 hrs for NIH3T3 and 15 hrs for HCT 116), cells were released from quiescence and then labeled with 35^S-methionine for 1 hour. Subsequently these cells were chased with cold methionine for the indicated times and then lysed. Cyclin D1 was immunoprecipitated and then analyzed with SDS-PAGE. Autoradiography was performed. Levels of metabolically labeled-cyclin D1 were estimated by quantitative scanning using the Quantity One (Bio-Rad) software and blotted on the graph to determine the half-life of cyclin D1. Panel C: illustrates that the turnover of cyclin D1 protein is mediated by the ubiquitin-proteasome pathway. […]
To confirm that the destabilization of cyclin D1 in the S phase is related to polyubiquitination, HCT 116 colon cancer cells were transfected with (lanes 1-3) or without (lane 4) HA-tagged ubiquitin cDNA and then synchronized to the S phase (FIG. 3, Panel D). […] A group of slower migrating bands was detected by the HA antibody exclusively in the anti-cyclin D1 immunoprecipitates in the presence of ubiquitin (lane 2 and 3). […]

GSK3α/β = assay: Phosphorylation-specific blot for GSK3α/β, SW480 cells; assay type: cell-based, human; conditions: 24 hours of treatment
[3] = tested on: cyclin D1 protein (Thr286 phosphorylation); assay: Western blot of cyclin D1 and p-Thr286 cyclin D1 in HA-CD1 SW480 cells treated with kinase inhibitors; assay type: cell-based, human
Experimental: Immunoblot analysis was performed. […] Asterisks indicate endogenous cyclin D1 expression. Panel B: Western blot analysis with fractionated nuclear proteins. […] Cell-cycle distribution was shown as bar graphs. Nuclear proteins were fractionated at indicated time points. […] Levels of total and phosphorylated cyclin D1 were determined.
(§3) Immunoblotting Analysis. […] SDS-PAGE was described previously (Tetsu and McCormick, 2003).
To identify the kinase responsible for cyclin D1 Thr286 phosphorylation, small molecule inhibitors of GSK3β, CDK4, and MEK were used to determine whether they were able to alter the phosphorylation and stability of ectopically expressed WT cyclin D1 protein in cultured cells (FIG. 5, Panels C and D). Ectopically expressed WT cyclin D1 protein was used to assess the stability of cyclin D1 protein. The endogenous expression was not assessed because transcription of cyclin D1 is regulated by the Ras/MAPK signaling. Therefore, endogenous expression of cyclin D1 is unable to be detected following inhibition of MAPK activities through the MEK/MAPK inhibitors or serum starvation (Tetsu et al., 2003. Cancer Cell. 3, 233-45).

cyclin D1 protein [4] = assay: Western blot of cyclin D1 with or without MG132 during cell cycle progression, HCT 116 cells; assay type: cell-based, human; conditions: MG132 2 hours
Experimental: (§4) FIG. 3 illustrates that cyclin D1 is destabilized during S phase through the ubiquitin-proteasome pathway in cancers. Panels A and B: Pulse-chase analysis of cyclin D1 protein in NIH 3T3 (Panel A) and HCT 116 (Panel B) cells. When most of the populations were in G1 phase (9 hrs for NIH3T3 and 6 hrs for HCT 116) or in S phase (21 hrs for NIH3T3 and 15 hrs for HCT 116), cells were released from quiescence and then labeled with 35^S-methionine for 1 hour. Subsequently these cells were chased with cold methionine for the indicated times and then lysed. Cyclin D1 was immunoprecipitated and then analyzed with SDS-PAGE. Autoradiography was performed. Levels of metabolically labeled-cyclin D1 were estimated by quantitative scanning using the Quantity One (Bio-Rad) software and blotted on the graph to determine the half-life of cyclin D1. Panel C: illustrates that the turnover of cyclin D1 protein is mediated by the ubiquitin-proteasome pathway. […] Western blot was performed with cyclin D1 and p-actin antibodies. Panel D: Polyubiquitination of cyclin D1 protein. HCT 116 colon cancer cells were transfected with (lane 1-3) or without (lane 4) ubiquitin cDNA and then synchronized to S phase through the sequential manipulation of serum starvation and stimulation. Cells were treated with (lane 3 and 4) or without (lane 1 and 2) 25 μM MG132 for an hour. […]

cyclin D1 protein [5] = assay: Western blot of cyclin D1 with or without MG132 during cell cycle progression, WI-38 cells; assay type: cell-based, human; conditions: MG132 2 hours
Experimental: as §4

cyclin D1 protein [6] = assay: Western blot of cyclin D1 with or without MG132 during cell cycle progression, NIH 3T3 cells; assay type: cell-based, mouse
Experimental: HCT 116 and NIH 3T3 cells were treated with the proteasome inhibitor MG132 at each time point during cell cycle progression (FIG. 3, Panel C).

cyclin D1 protein [7] = assay: Pulse-chase analysis of cyclin D1 protein in HCT 116 cells; assay type: cell-based, human; conditions: exponentially growing HCT 116; 10 μM U0126 30 minutes
Experimental: (§5) FIG. 11 illustrates that ERK/MAPK is identified as the major kinase that is responsible for the stability of cyclin D1 protein. Panels A-F: Pulse-chase analysis of cyclin D1 protein in HCT 116 cells after exposure to the MEK inhibitor U0126 (A-C) or the GSK3 inhibitor BIO (D-F). Exponentially growing HCT 116 cells were treated with either DMSO or 10 μM of U0126 (A-C) for 30 minutes, or DMSO or 5 μM of BIO (D-F) for 24 hours. Panels A and D: Cells were pulse-labeled with ^35S-methionine for 1 hour. Subsequently these cells were chased with cold methionine for the indicated times, and then lysed respectively. Cyclin D1 was immunoprecipitated and then analyzed with SDS-PAGE. Autoradiography was performed. Levels of metabolically labeled-cyclin D1 were estimated by quantitative scanning using the Quantity One (Bio-Rad) software and blotted on the graph to determine the half-life of cyclin D1. […]
FIG. 18 illustrates that knockdown of FBXW8, or its partner CUL1 or CUL7 expression through siRNA stabilizes cyclin D1 expression in HCT 116 colon cancer cells. […] Cyclin D1 was immunoprecipitated and then analyzed with SDS-PAGE. Levels of metabolically labeled-cyclin D1 were estimated by quantitative scanning using the Quantity One software (Bio-Rad) and blotted on the graph to determine the half-life of cyclin D1 (D).
Pulse-Chase Analysis. […] Cyclin D1 was immunoprecipitated and then analyzed with SDS-PAGE. […]

MEK/MAPK [8] = assay: Western blot of phosphorylated ERK (pERK) in HCT 116 cells; assay type: cell-based, human
Experimental: as §5, with “D1. Panels B and E: Western blot analysis. The membrane was blotted with a cyclin D1 Thr286 phosphorylation specific (pThr286), total cyclin D1, a phosphorylation specific ERK, and total ERK antibodies (B), or a pThr286, cyclin D1, a GSKα/β phosphorylation specific, and GSK3β antibodies (E). Panels C and F: Cell cycle distributions were shown.” for “D1.”

[9] = tested on: cyclin D1 / E3 ligase FBXW8; conditions: HCT 116 transfected with FBXW8, cyclin D1 and CDK4; 10 μM U0126 30 minutes
Experimental: Panel D: Immunoprecipitated-immunoblotting analysis. […] Panels D and E: Exponentially growing HCT 116 colon cancer cells were transiently transfected with Flag epitope-tagged FBXW8 DNA plasmid together with HA-tagged cyclin D1 and CDK4 expression vectors. Twenty-four hours later cells were treated with DMSO (−) or 10 μM of U0126 (+) for 30 minutes and then harvested. Cell lysates were immunoprecipitated with either a Flag (FBXW8) antibody or a control IgG and immunoblotted with cyclin D1, pThr286, and Flag (FBXW8) antibodies (left panel). Western blot for input controls (lysate) were provided (right panel).
Immunoprecipitation and Immunoblotting Analysis. […] Following antibodies were used for immunoprecipitation; Flag (M2 Agarose-conjugated, Sigma), cyclin D1 (A-12, Agarose-conjugated, Santa Cruz), CDK4 (H-303 or C-22 Agarose-conjugated, Santa Cruz), CDK6 (C-21, Santa Cruz), FLA (M2 Agarose-conjugated, Sigma), and HA (Y-11 Agarose-conjugated, Santa Cruz). Immunoblotting was performed using antibodies described above.
FBXW8 DNA plasmid together with cyclin D1 and CDK4 expression vectors were transiently transfected in exponentially growing HCT 116 colon cancer cells. After 24 hours, cells were treated with U0126 to inhibit MEK/MAPK signaling for 30 minutes. Subsequently cells were collected and an immunoprecipitated-immunoblotting analysis was performed (FIG. 12, Panels D and E).

cyclin D1 protein [10] = conditions: HA-WT cyclin D1 SW480 cells; U0126 24 hours, then CHX, chased 3 hours
Experimental: FIG. 8 illustrates that MAPK regulates stability and relocalization of cyclin D1 protein. Panels A and B: Half-life analysis of HA-CD1 WT after exposure to U0126. Panel A: Exponentially growing HA-WT cyclin D1 SW480 cells were exposed to U0126 for 24 hours and subsequently treated with CHX and chased for 3 hours. Cells were harvested at different times and protein blot was performed (upper panel). Cyclin D1 expression was quantified and the half-life was calculated respectively. Panel B: Western blot analysis.
Immunoblotting Analysis. […] NE-PER nuclear and cytoplasmic extraction reagents (Pierce) were used for nuclear and cytoplasmic fractionation. […] Western blots were developed by enhanced chemiluminescence (Amersham or Upstate). […] Intensities of bands were quantified using Gel Doc 600 and Quantity One software (BioRad).
Exponentially growing HA-WT cyclin D1 SW480 cells were exposed to U0126 for 24 hours and subsequently treated with CHX and chased for 3 hours. […] Cyclin D1 expression was quantified and the half-life was calculated (FIG. 8, Panel A bottom graph).

[11] = tested on: cyclin D1 protein (Thr286 phosphorylation); assay: Western blot of total cyclin D1 and pThr286 in HCT 116 cells after U0126 or GSK3 inhibitor; assay type: cell-based, human
Experimental: FIG. 11 illustrates that ERK/MAPK is identified as the major kinase that is responsible for the stability of cyclin D1 protein. Panels A-F: Pulse-chase analysis of cyclin D1 protein in HCT 116 cells after exposure to the MEK inhibitor U0126 (A-C) or the GSK3 inhibitor BIO (D-F). Exponentially growing HCT 116 cells were treated with either DMSO or 10 μM of U0126 (A-C) for 30 minutes, or DMSO or 5 μM of BIO (D-F) for 24 hours. Panels A and D: Cells were pulse-labeled with ^35S-methionine for 1 hour. Subsequently these cells were chased with cold methionine for the indicated times, and then lysed respectively. Cyclin D1 was immunoprecipitated and then analyzed with SDS-PAGE. Autoradiography was performed. Levels of metabolically labeled-cyclin D1 were estimated by quantitative scanning using the Quantity One (Bio-Rad) software and blotted on the graph to determine the half-life of cyclin D1. Panels B and E: Western blot analysis. The membrane was blotted with a cyclin D1 Thr286 phosphorylation specific (pThr286), total cyclin D1, a phosphorylation specific ERK, and total ERK antibodies (B), or a pThr286, cyclin D1, a GSKα/β phosphorylation specific, and GSK3β antibodies (E). Panels C and F: Cell cycle distributions were shown. Panel G: Western blot analysis following transfection of various forms of HA-tagged cyclin D1 expression vectors in both NIH 3T3 mouse fibroblast (left) and HCT 116 colon cancer (right) cells. In lane 5 and 10, cells were treated with 5 μM of BIO for further 24 hours following transfection of the ΔD CD1 mutant.
as §3
To determine the contribution of ERK/MAPK to the stability of cyclin D1 in cancer cells, MAPK activity was inhibited with the MEK inhibitor U0126 (Favata et al., 1998. J Bio Chem. 273, 18623-32; Davies et al., 2000. Biochem J. 351, 95-105). Exponentially growing HCT 116 colon cancer cells were treated with U0126 for 30 minutes (FIG. 11, Panels A-C).
In contrast, no effect on phosphorylation status and stability of cyclin D1 protein through inhibition of GSK3α/β ([…], Panels D-F) were detected. […] Cycling HCT 116 colon cancer cells were treated with BIO for 24 hours (FIG. 11, Panels D-F). A phosphorylation specific antibody to GSK3α and β was used to measure their endogenous activities because phosphorylations of GSK3α at Tyr279 and GSK3β at Tyr216 are intramolecular autophosphorylation events in the cells. Thus, phosphorylation status reflects their kinase activities (Cole et al., 2004. Biochem J. 377, 249-55).

[12] = tested on: HCT 116 colon cancer cells; assay: Flow-cytometric cell cycle analysis, HCT 116 cells; assay type: cell-based, human; conditions: U0126 30 minutes
Experimental: Cell cycle analysis was carried out as described previously (Tetsu et al. (1999) Nature 398: 422-6; Tetsu et al. (2003) Cancer Cell 3: 233-45.

MEK/MAPK [13] = tested on: MEK/MAPK
Experimental: Immunoblot analysis was performed. […] Panels C and D: HA-WT CD1 (D) or Panel E: HA-CD1 T286A ectopically expressing SW480 cells were treated with highly specific small molecule inhibitors for GSK3β CDK4 and MEK. LiCl and BIO, AG12275, and U0126 were used for GSK, CDK4 and MEK/MAPK inhibitions respectively. Twenty-four hours after the treatment, cells were harvested and western-blot analyses were performed with a cyclin D1 and the p-Thr286 cyclin D1 antibodies. The phosphorylated cyclin D1 expression was magnified and normalized to its total (phosphorylated plus non-phosphorylated protein) expression and shown in the graphs in Panel C. Inhibition of the kinase activities by drugs was assessed using phosphorylation-specific antibodies for GSK3α/β, Rb and ERK1/2 on the same membrane respectively. […] HA-WT CD1 SW480 cells were treated with combining U0126 with LiCl.
After 24 hours of treatment with these highly specific small molecule inhibitors, expression levels of cyclin D1 and its phosphorylated form were analyzed (FIG. 5, Panel C). Levels of phosphorylated cyclin D1 were estimated by quantitative scanning with Quantity One (Bio Rad) software and were normalized to levels of total cyclin D1 protein (FIG. 5, Panel C bottom graphs).
Cells were next treated with the MEK inhibitor U0126.

[14] = HCT 116 transfected with FBXW8, cyclin D1 and CDK4, 10 μM U0126 30 minutes
[15] = exponentially growing HCT 116, U0126 30 minutes
[16] = HA-WT CD1 SW480 cells, U0126 24 hours

4-hydroxy-tamoxifen [4-HT]
MAPK activation (MAPK (ERK1/2)): MAPK activation | half-life of cyclin D1 protein (T1/2) (cyclin D1 protein [1]; exponentially growing cells, 10 nM 4-HT, then CHX, chased 3 hours): 20.6 min | cyclin D1 expression in S phase (cyclin D1 protein [1]; serum-stimulated from quiescence in the presence of 4-HT): dramatic reduction

CCC(=C/[C@H](C)C/C=C/C(C)=C/[C@@H](C)C(=O)[C@@H](C)[C@H](O)[C@@H](C)C/C(C)=C/C(=O)O)/C=C/[C@@H]1OC(=O)C=C[C@@H]1C [Leptomycin B]
polyubiquitinated cyclin D1 bands in the nucleus ([2]; LMB 3 hours, then MG132 for an hour, nuclear fraction): did not enhance these bands significantly

[Cl-].[Li+] [LiCl]
phosphorylated forms of GSK3α/β (GSK3α/β): disappeared | total cyclin D1 expression and its phosphorylated protein ([3]; HA-WT CD1 SW480 cells, 24 hours of treatment): no significant difference | effect of adding LiCl to U0126 on cyclin D1 ([3]; HA-WT cyclin D1 SW480 cells, U0126 combined with LiCl): little enhancement

CC(C)C[C@@H](C=O)NC(=O)[C@H](CC(C)C)NC(=O)[C@H](CC(C)C)NC(=O)OCc1ccccc1 [MG132] (Cbz-Leu-Leu-Leu-aldehyde)
cyclin D1 protein accumulation during G1 phase (cyclin D1 protein [4]): no significant accumulation | cyclin D1 protein accumulation in S phase (cyclin D1 protein [4]): accumulated significantly | cyclin D1 protein accumulation, G1 versus S phase (cyclin D1 protein [5]): no remarkable different | reduced mobility (polyubiquitinated cyclin D1) bands ([2]; 25 μM MG132 for an hour): enhanced further | cyclin D1 protein accumulation, G1 versus S phase (cyclin D1 protein [6]): no difference between the G1 and S phase

N#CC(=C(/N)Sc1ccccc1N)/C(C#N)=C(\N)Sc1ccccc1N [U0126]
half-life of cyclin D1 protein (cyclin D1 protein [7]): 54.6 min | MAPK activities (pERK) (MEK/MAPK [8]; [14]): significantly inhibited | phosphorylated form of ERK (pERK) (MEK/MAPK [8]; [15]): significantly depleted | association of cyclin D1 with the E3 ligase FBXW8 [9]: significant decrease | half-life of cyclin D1 protein (T1/2) (cyclin D1 protein [10]): 60.3 min | phosphorylation status of cyclin D1 at Thr286 (pThr286) [11, 14]: significantly inhibited | level of total cyclin D1 [11, 15]: not changed | phosphorylation of cyclin D1 at Thr286 (pThr286) [11, 15]: dramatic reduction | cell cycle profile [12]: without affecting | ectopic expression of cyclin D1 T286A protein ([3]; HA-CD1 T286A SW480 cells, U0126): did not accumulate | cyclin D1 expression (ectopic HA-WT) [3, 16]: dramatic induction | ratio of phosphorylated cyclin D1 at Thr286 to total cyclin D1 [3, 16]: significant reduction | MAPK activity (MEK/MAPK [13]; HA-WT cyclin D1 SW480 cells, U0126 24 hours (FIG. 8 Panel B)): completely inhibited | phosphorylated ERK (MEK/MAPK [13]; SW480 cells, 24 hours after exposure): disappeared
